Laboratory results as given in patent US20160152995A1, “METHODS AND COMPOSITIONS TO IMPROVE THE SPREAD OF CHEMICAL SIGNALS IN PLANTS” (PIONEER HI-BRED INTERNATIONAL, INC., priority 2013, published 2016).

How the values were obtained:
DsRED gene expression = experiment: DsRED induction in transgenic tobacco leaf disks and T1 seedlings with Ethametsulfuron; format: in vivo, Nicotiana tabacum; conditions: T1 seeds germinated on 1 ppm Ethametsulfuron, monitored thru four leaf stage
From the text: A summary of the constructs shown in FIG. 4 is provided below in table 29. All vectors contain a right border (RB) proximal 35S::3xtetO-DsRED-UBQ3 inducible reporter cassette, a 35S::1xtetO-EsR(L13-32)-UBQ14 repressor cassette, and a SAMS-HRA-ALS left border (LB) proximal selectable marker. Inserted either upstream (pHD1194-1196) or downstream ([…]) of the repressor cassette are MMV::3xOp-siRNA^rep-Pin2 cassettes composed of an inverted repeat of the full length repressor coding region (no ATG-pHD1194 and 1197) or limited to the 5′ (pHD1195 & 1198) or 3′ (pHD1196 & 1199) halves of the SU repressor coding region linked by an intron spacer region. The MMV::tetO promoter was chosen so as not to cause silencing of the 35S::tetO promoter controlling target transgene expression. In this particular example the spacer region is the potato ST-LS1 gene intron IV2 (Construction of an intron-containing marker gene: splicing of the intron in transgenic plants and its use in monitoring early events in Agrobacterium-mediated plant transformation. Vancanneyt et al. (1990) Mol Gen Genet. 220(2):245-50). […] Nine fully derepressed DsRED positive seedings for each event were then transplanted into soil and their fluorescence phenotype monitored thru the four leaf developmental stage. […]

DS-RED expression = experiment: DS-RED induction in soybean T0 leaf discs floated on ethametsulfuron; format: in vivo; conditions: soybean T0 leaf discs of experimental plants (pPHP46864, amiRNA) vs control pPHP46916; 0.05 ppm or 0.5 ppm, 3-4 days
From the text: (§1) The first, a control construct, pPHP46916 (10,904 bp) (SEQ ID NO: 2111) contains the following cassettes: cassette A comprising a Glycine max s-adenosylmethionine promoter operably linked to the Glycine max acetolactate synthase gene with HrA mutations operably linked to a Glycine max acetolactate synthase terminator (this cassette serves as a selectable marker during plant transformation; position 81-4062); followed by cassette B comprising the T7 promoter operably linked to hygromycin phosphotransferase operably linked to a T7 terminator (which serves as a selectable marker in E. coli, positions 5448-6586); followed by cassette C comprising a cauliflower mosaic virus 35S promoter with three copies of the TET operator embedded operably linked to DS-RED Express that has the potato LS1 intron; operably linked to the cauliflower mosaic virus 35S terminator (position 6862-8455), followed by cassette D comprising the Glycine max elongation factor 1a2 promoter operably linked to the repressor protein ESR (L10-B7) operably linked to the nos terminator (position 8474-10893). The second, experimental construct, pPHP46864 (11,868 bp) (SEQ ID NO:2112) is exactly the same except embedded within the potato LS1 intron at the Mfe1 site is a 964 bp cassette containing the Glycine max microRNA precursor 159 containing a microRNA that targets the repressor protein. […]

DS-red signal = DS-red signal in soybean T1 plants from seed imbibed with chlorsulfuron; format: in vivo; conditions: T1 seed imbibed with 1 ppm, two weeks
From the text: as §1

SMILES	DsRED expression signal (DsRED gene expression; pHD1180 control tobacco events (no siRNA cassette))	DsRED intensity level (DsRED gene expression; tobacco lines containing the MMV::tetO-siRNArep cassette (pHD1194-1199))	pattern of DS-RED expression in inducible leaf discs (DS-RED expression)	DS-red signal (DS-red signal; control soybean plants (pPHP46916))	DS-red signal (DS-red signal; experimental soybean plants (pPHP46864, amiRNA))
CCOc1nc(NC)nc(NC(=O)NS(=O)(=O)c2ccccc2C(=O)OC)n1 [Ethametsulfuron, Ethametsulfuron-methyl]	modest and diminishes	high and remains so with time	smoother, more even pattern of expression	–	–
COc1nc(C)nc(NC(=O)NS(=O)(=O)c2ccccc2Cl)n1 [chlorsulfuron]	–	–	–	no DS-red signal found in root, stem or cotyledon	weak DS-red signal
